Test results published in ChEMBL document CHEMBL1201862, “PubChem BioAssay data set” (2004).
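Tested at 5 concentrations; 48 h exposure; 96-well plates; endpoints linearly interpolated, else capped at highest concentration. GI50 is the concentration that inhibits growth by half.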 Calls of active or inactive are those of the source. Rule as the data show it: active = GI50 up to about 1.1 µM and inactive = higher.

Legend:
Assay in all cases: NCI tumour cell line growth inhibition, 48 h
786-0 = test system: 786-0
ACHN = test system: ACHN
COLO 205 = test system: COLO 205
HOP-92 = test system: HOP-92
HT-29 = test system: HT-29
K562 = test system: K562
KM12 = test system: KM12
M14 = test system: M14
NCI-H226 = test system: NCI-H226
NCI-H23 = test system: NCI-H23
NCI-H522 = test system: NCI-H522
OVCAR-8 = test system: OVCAR-8
SW-620 = test system: SW-620
U-251 = test system: U-251
SF-268 = test system: SF-268
SK-MEL-28 = test system: SK-MEL-28

Measured: GI50

O=C(NCCCCCCNC(=O)OCCSCCn1cc(C(=O)NC(=O)OCc2ccccc2)c(=O)[nH]c1=O)OCCSCCn1cc(C(=O)NC(=O)OCc2ccccc2)c(=O)[nH]c1=O
inactive: 786-0 > 100 µM | ACHN > 100 µM | COLO 205 > 100 µM | HOP-92 32.1 µM | HT-29 > 100 µM | K562 > 100 µM | KM12 > 100 µM | M14 > 100 µM | NCI-H226 > 100 µM | NCI-H23 > 100 µM | NCI-H522 > 100 µM | OVCAR-8 > 100 µM | SW-620 > 100 µM | U-251 > 100 µM

COc1ccc2c(c1)Oc1cc(O)ccc1[C@H]2c1ccccc1C(=O)NC(C)c1ccccc1 (stereo not given in full)
inactive: 786-0 17.9 µM | ACHN 13.2 µM | COLO 205 17.1 µM | HT-29 19.9 µM | K562 16.8 µM | KM12 14.3 µM | M14 13.1 µM | NCI-H226 20.7 µM | NCI-H23 15.5 µM | NCI-H522 12 µM | OVCAR-8 16 µM | SF-268 19 µM | SK-MEL-28 17.7 µM | SW-620 17.1 µM | U-251 14.4 µM

Cc1ccc(-n2nc(C(OC3OC(CO)C(O)C(O)C3O)C(O)CO)c3nc4cc(C)c(C)cc4nc32)cc1 (stereo not given)
inactive: 786-0 > 100 µM | ACHN > 100 µM | HT-29 > 100 µM | K562 > 100 µM | KM12 > 100 µM | M14 > 100 µM | NCI-H23 > 100 µM | NCI-H522 > 100 µM | OVCAR-8 > 100 µM | SF-268 > 100 µM | SK-MEL-28 > 100 µM | U-251 > 100 µM

CC1=C2[C@@H](c3ccccc3)C3C=CC2(c2ccccc23)N(C(=O)Nc2cccc3ccccc23)C1=O (stereo not given in full)
inactive: 786-0 > 100 µM | ACHN > 100 µM | COLO 205 > 100 µM | HOP-92 > 100 µM | K562 > 100 µM | KM12 > 100 µM | M14 > 100 µM | NCI-H23 > 100 µM | OVCAR-8 > 100 µM | SF-268 > 100 µM | SK-MEL-28 > 100 µM | SW-620 > 100 µM | U-251 > 100 µM

O=C(O)CCC(=O)Oc1ccc(O)c2c1CCCC2=O
inactive: 786-0 > 100 µM | ACHN > 100 µM | COLO 205 > 100 µM | HT-29 > 100 µM | K562 > 100 µM | KM12 > 100 µM | M14 > 100 µM | NCI-H226 > 100 µM | NCI-H23 > 100 µM | NCI-H522 66.5 µM | OVCAR-8 > 100 µM | SF-268 > 100 µM | SK-MEL-28 > 100 µM | SW-620 > 100 µM | U-251 > 100 µM

NC(=O)Cn1c(=O)[nH]c(=O)c2[nH]cnc21
inactive: 786-0 > 100 µM | ACHN > 100 µM | COLO 205 > 100 µM | HT-29 > 100 µM | K562 > 100 µM | KM12 > 100 µM | M14 > 100 µM | NCI-H226 > 100 µM | NCI-H23 > 100 µM | NCI-H522 > 100 µM | OVCAR-8 > 100 µM | SF-268 > 100 µM | SK-MEL-28 > 100 µM | SW-620 > 100 µM | U-251 > 100 µM

CCOC(=O)C1CC(=O)C=C2CCCCC21 (stereo not given)
inactive: 786-0 > 100 µM | ACHN > 100 µM | COLO 205 > 100 µM | HOP-92 > 100 µM | HT-29 > 100 µM | K562 > 100 µM | KM12 > 100 µM | M14 > 100 µM | NCI-H23 > 100 µM | NCI-H522 > 100 µM | OVCAR-8 > 100 µM | SF-268 > 100 µM | SK-MEL-28 > 100 µM | SW-620 > 100 µM | U-251 > 100 µM

O=C1NCC2=C1CCC1c3ccccc3CCN21 (stereo not given)
inactive: 786-0 > 100 µM | ACHN > 100 µM | COLO 205 > 100 µM | HOP-92 > 100 µM | HT-29 > 100 µM | KM12 > 100 µM | NCI-H226 > 100 µM | NCI-H23 > 100 µM | NCI-H522 > 100 µM | OVCAR-8 > 100 µM | SF-268 > 100 µM | SK-MEL-28 > 100 µM | SW-620 > 100 µM | U-251 > 100 µM

CC1(C)OCC([C@H]2CC23SCCCS3)O1 (stereo not given in full)
inactive: 786-0 > 100 µM | ACHN > 100 µM | COLO 205 > 100 µM | HOP-92 51.8 µM | HT-29 > 100 µM | K562 > 100 µM | KM12 > 100 µM | M14 > 100 µM | NCI-H226 > 100 µM | NCI-H23 > 100 µM | NCI-H522 > 100 µM | OVCAR-8 > 100 µM | SF-268 > 100 µM | SK-MEL-28 > 100 µM | U-251 > 100 µM

O=C1NC(Cc2ccc(O)cc2)C(=O)N2CCCC12 (stereo not given)
inactive: 786-0 > 100 µM | ACHN > 100 µM | COLO 205 > 100 µM | HOP-92 > 100 µM | HT-29 > 100 µM | K562 > 100 µM | KM12 > 100 µM | M14 > 100 µM | NCI-H226 > 100 µM | NCI-H522 > 100 µM | OVCAR-8 > 100 µM | SF-268 > 100 µM | SK-MEL-28 > 100 µM | SW-620 > 100 µM | U-251 > 100 µM

COc1ccc2nc(-c3ccc(O)cc3)ccc2c1
inactive: 786-0 > 100 µM | ACHN > 100 µM | COLO 205 > 100 µM | HOP-92 > 100 µM | HT-29 > 100 µM | K562 > 100 µM | KM12 > 100 µM | M14 > 100 µM | NCI-H226 > 100 µM | NCI-H23 > 100 µM | NCI-H522 > 100 µM | OVCAR-8 > 100 µM | SF-268 1.22 µM | SK-MEL-28 > 100 µM | SW-620 > 100 µM

N#CC(C#N)=C1NC(=O)C(c2ccccc2)C(=O)N1 (stereo not given)
inactive: 786-0 > 100 µM | COLO 205 > 100 µM | HOP-92 > 100 µM | HT-29 > 100 µM | K562 > 100 µM | KM12 > 100 µM | M14 > 100 µM | NCI-H226 > 100 µM | NCI-H23 > 100 µM | NCI-H522 > 100 µM | OVCAR-8 > 100 µM | SF-268 > 100 µM | SW-620 > 100 µM | U-251 > 100 µM

CCCC(=O)N[C@H]1C2C3CC4C5CC(C42)C1(C)C53 (stereo not given in full)
inactive: 786-0 > 100 µM | ACHN > 100 µM | COLO 205 > 100 µM | HOP-92 > 100 µM | HT-29 > 100 µM | K562 > 100 µM | KM12 > 100 µM | M14 > 100 µM | NCI-H226 > 100 µM | NCI-H522 > 100 µM | SF-268 > 100 µM | SK-MEL-28 > 100 µM | SW-620 > 100 µM | U-251 > 100 µM

C[C@H]1CC[P+](Cc2ccccc2)(c2ccccc2)C1 (stereo not given in full)
inactive: 786-0 > 100 µM | ACHN > 100 µM | COLO 205 38 µM | HT-29 73.6 µM | K562 > 100 µM | KM12 > 100 µM | M14 > 100 µM | NCI-H226 > 100 µM | NCI-H23 > 100 µM | NCI-H522 76.7 µM | OVCAR-8 > 100 µM | SK-MEL-28 84.7 µM | SW-620 > 100 µM | U-251 36.7 µM
